Assay results published in ChEMBL document CHEMBL4265935, “Synthesis and evaluation of novel arctigenin derivatives as potential anti-Toxoplasma gondii agents” (Eur J Med Chem, 2018).
Activity calls are given as the source filed them. No cut-off for these calls is given here.

Experiments:
[1] = Selectivity index, ratio of IC50 for human HeLa cells to ratio of IC50 for Toxoplasma gondii RH tachyzoites; assay type: toxicity; conditions: HeLa cells versus Toxoplasma gondii RH tachyzoites, read-out: Ratio IC50
[2] = system: HeLa; assay: Cytotoxicity against human HeLa cells assessed as reduction in cell viability by MTT assay; assay type: cell-based
[3] = system: Toxoplasma gondii; assay: Antiparasitic activity against Toxoplasma gondii RH tachyzoites by MTT assay; assay type: functional, organism-based
[4] = system: Toxoplasma gondii; assay: Antiparasitic activity against Toxoplasma gondii RH tachyzoites infected in human HeLa cells assessed as decrease in number of cell death at 100 uM after 24 hrs by inverted optical microscopic analysis; assay type: functional, organism-based
[5] = system: Toxoplasma gondii; assay: Antiparasitic activity against Toxoplasma gondii RH tachyzoites infected in human HeLa cells assessed as increase in cell survival at 100 uM after 24 hrs by trypan blue assay relative to spiramycin; assay type: functional
[6] = system: Toxoplasma gondii; assay: Antiparasitic activity against Toxoplasma gondii RH infected in Kunming mouse assessed as decrease in GSH level in liver at 100 mg/kg, po qd administered via gavage for 4 consecutive days measured on day 5; assay type: functional, organism-based
[7] = system: Toxoplasma gondii; assay: Antiparasitic activity against Toxoplasma gondii RH infected in Kunming mouse assessed as increase in survival rate by measuring mortality day at 100 mg/kg, po qd administered via gavage for several consecutive days measured on day 10 (reference value: 9 to 11 days); assay type: functional
[8] = system: Toxoplasma gondii; assay: Antiparasitic activity against Toxoplasma gondii RH infected in Kunming mouse assessed as improvement of hepatomegaly at 100 mg/kg, po qd administered via gavage for 4 consecutive days measured on day 5; assay type: functional, organism-based
[9] = system: Toxoplasma gondii; assay: Antiparasitic activity against Toxoplasma gondii RH infected in Kunming mouse assessed as inhibition of number of intraperitoneal tachyzoite in abdominal cavity at 100 mg/kg, po qd administered via gavage for 4 consecutive days measured on day 5 by light microscopic analysis relative to control; assay type: functional; conditions: 120 h
[10] = system: Toxoplasma gondii; assay: Antiparasitic activity against Toxoplasma gondii RH infected in Kunming mouse assessed as increase in body weight at 100 mg/kg, po qd administered via gavage for several consecutive days; assay type: functional, organism-based
[11] = system: Toxoplasma gondii; assay: Antiparasitic activity against Toxoplasma gondii RH infected in Kunming mouse assessed as reduction in serum ALT level at 100 mg/kg, po qd administered via gavage for 4 consecutive days measured on day 5; assay type: functional, organism-based
[12] = system: Toxoplasma gondii; assay: Antiparasitic activity against Toxoplasma gondii RH tachyzoites infected in human HeLa cells assessed as decrease in cell shrinkage at 100 uM after 24 hrs by inverted optical microscopic analysis; assay type: functional, organism-based
[13] = system: Toxoplasma gondii; assay: Antiparasitic activity against Toxoplasma gondii RH infected in Kunming mouse assessed as inhibition of number of intraperitoneal tachyzoite in abdominal cavity at 200 mg/kg, po qd administered via gavage for 4 consecutive days measured on day 5 by light microscopic analysis relative to control; assay type: functional
[14] = system: Toxoplasma gondii; assay: Antiparasitic activity against Toxoplasma gondii RH infected in Kunming mouse assessed as survival rate at 100 mg/kg, po qd administered via gavage for several consecutive days measured on day 20 relative to control; assay type: functional; conditions: 480 h
[15] = system: Toxoplasma gondii; assay: Antiparasitic activity against Toxoplasma gondii RH infected in Kunming mouse assessed as reduction in serum AST level at 100 mg/kg, po qd administered via gavage for 4 consecutive days measured on day 5; assay type: functional, organism-based
[16] = system: Toxoplasma gondii; assay: Antiparasitic activity against Toxoplasma gondii RH tachyzoites infected in human HeLa cells assessed as cell survival at 100 uM after 24 hrs by trypan blue assay (reference value: 20.8%); assay type: functional
[17] = system: Toxoplasma gondii; assay: Antiparasitic activity against Toxoplasma gondii RH infected in Kunming mouse assessed as increase in GSH level in liver at 100 mg/kg, po qd administered via gavage for 4 consecutive days measured on day 5; assay type: functional, organism-based
[18] = system: Toxoplasma gondii; assay: Antiparasitic activity against Toxoplasma gondii RH infected in Kunming mouse assessed as improvement of splenomegaly at 100 mg/kg, po qd administered via gavage for 4 consecutive days measured on day 5; assay type: functional, organism-based

Structure (SMILES)	selectivity ratio [1]	IC50 [2] [µM]	IC50 [3] [µM]	other results
COc1ccc(C[C@H]2COC(=O)[C@@H]2Cc2ccc(OCc3cn(-c4ccc(Cl)cc4)nn3)c(OC)c2)cc1OC	1	279	278	
COc1ccc(C[C@H]2COC(=O)[C@@H]2Cc2ccc(OCc3cn(Cc4ccccc4Cl)nn3)c(OC)c2)cc1OC	3.48	84.5	24.3	
COC(=O)[C@H](Cc1ccccc1)NC(=O)CCC(=O)Oc1ccc(C[C@H]2C(=O)OC[C@@H]2Cc2ccc(OC)c(OC)c2)cc1OC		≥ 600	≥ 600	
COc1ccc(-n2cc(COc3ccc(C[C@H]4C(=O)OC[C@@H]4Cc4ccc(OC)c(OC)c4)cc3OC)nn2)cc1		≥ 600	≥ 600	
COc1cc(C[C@H]2C(=O)OC[C@@H]2Cc2ccc(OC)c(OC)c2)ccc1O [ARCTIGENIN]	0.98	573	586	Activity [4]: Active; Activity [5]: 18.4%; Activity [6]: Active; mortality [7]: 10 days; Activity [8]: Active; inhibition in vivo at 100 mg/kg [9]: 75.9%; Activity [10]: Active; Activity [11]: inactive; Activity [12]: Active; inhibition [13]: Active; survival at 100 mg/kg [14]: 16%; Activity [15]: Active
COc1ccc(C[C@H]2COC(=O)[C@@H]2Cc2ccc(OCC(=O)N3CCCC3)c(OC)c2)cc1OC	> 1.78	≥ 600	336	
COc1ccc(C[C@H]2COC(=O)[C@@H]2Cc2ccc(OCc3cn(-c4ccccc4)nn3)c(OC)c2)cc1OC	0.92	124	136	
COc1ccc(C[C@H]2COC(=O)[C@@H]2Cc2ccc(OCc3cn(-c4ccc(Br)cc4)nn3)c(OC)c2)cc1OC	0.3	128	429	
COc1ccc(C[C@H]2COC(=O)[C@@H]2Cc2ccc(OCc3cn(Cc4ccccc4)nn3)c(OC)c2)cc1OC	0.53	346	651	
COC(=O)[C@H](CC(C)C)NC(=O)CCC(=O)Oc1ccc(C[C@H]2C(=O)OC[C@@H]2Cc2ccc(OC)c(OC)c2)cc1OC	0.85	53.2	62.5	
COC(=O)[C@@H](Cc1ccccc1)NC(=O)CCC(=O)Oc1ccc(C[C@H]2C(=O)OC[C@@H]2Cc2ccc(OC)c(OC)c2)cc1OC	1.58	357	226	
CCN(CC)C(=O)CCC(=O)Oc1ccc(C[C@H]2C(=O)OC[C@@H]2Cc2ccc(OC)c(OC)c2)cc1OC	1.04	213	206	
CCN1CCN(C(=O)CCC(=O)Oc2ccc(C[C@H]3C(=O)OC[C@@H]3Cc3ccc(OC)c(OC)c3)cc2OC)CC1	2.01	190	94.4	
COC(=O)[C@@H]1CCCN1C(=O)CCC(=O)Oc1ccc(C[C@H]2C(=O)OC[C@@H]2Cc2ccc(OC)c(OC)c2)cc1OC	3.31	145	43.9	
COc1ccc(C[C@H]2COC(=O)[C@@H]2Cc2ccc(OCc3cn(-c4cccc(Cl)c4)nn3)c(OC)c2)cc1OC	1.83	493	269	
COc1ccc(C[C@H]2COC(=O)[C@@H]2Cc2ccc(OCC(=O)N3CCCCC3)c(OC)c2)cc1OC	0.94	293	313	

Structure (SMILES)	selectivity ratio [1]	IC50 [2] [µM]	IC50 [3] [µM]	other results
COC(=O)[C@@H](NC(=O)CCC(=O)Oc1ccc(C[C@H]2C(=O)OC[C@@H]2Cc2ccc(OC)c(OC)c2)cc1OC)c1ccccc1	0.92	78.1	84.4	
COc1ccc(C[C@H]2COC(=O)[C@@H]2Cc2ccc(OCC(=O)Nc3ccc(C)cc3)c(OC)c2)cc1OC	0.71	228	322	
COc1ccc(C[C@H]2COC(=O)[C@@H]2Cc2ccc(OCC(=O)N3CCOCC3)c(OC)c2)cc1OC		≥ 600	≥ 600	
COc1ccc(C[C@H]2COC(=O)[C@@H]2Cc2ccc(OC(=O)CCC(=O)N3CCCCC3)c(OC)c2)cc1OC	3.12	128	41	
COc1ccc(C[C@H]2COC(=O)[C@@H]2Cc2ccc(OCc3cn(Cc4ccc(F)cc4)nn3)c(OC)c2)cc1OC	< 0.33	198	≥ 600	
COC(=O)[C@H](CCSC)NC(=O)CCC(=O)Oc1ccc(C[C@H]2C(=O)OC[C@@H]2Cc2ccc(OC)c(OC)c2)cc1OC	1.2	199	165	
COC(=O)CNC(=O)CCC(=O)Oc1ccc(C[C@H]2C(=O)OC[C@@H]2Cc2ccc(OC)c(OC)c2)cc1OC	1.14	179	157	
COc1ccc(C[C@H]2COC(=O)[C@@H]2Cc2ccc(OCc3cn(-c4ccc(F)cc4)nn3)c(OC)c2)cc1OC		≥ 600	≥ 600	
COc1ccc(C[C@H]2COC(=O)[C@@H]2Cc2ccc(OCc3cn(Cc4ccc(Cl)cc4)nn3)c(OC)c2)cc1OC	0.97	242	251	
COC(=O)CC[C@H](NC(=O)CCC(=O)Oc1ccc(C[C@H]2C(=O)OC[C@@H]2Cc2ccc(OC)c(OC)c2)cc1OC)C(=O)OC	0.61	95.7	157	
CCN(CC)C(=O)COc1ccc(C[C@H]2C(=O)OC[C@@H]2Cc2ccc(OC)c(OC)c2)cc1OC	0.48	188	388	
COC(=O)[C@@H](NC(=O)CCC(=O)Oc1ccc(C[C@H]2C(=O)OC[C@@H]2Cc2ccc(OC)c(OC)c2)cc1OC)C(C)C	1.96	64	32.7	
COc1ccc(C[C@H]2COC(=O)[C@@H]2Cc2ccc(OCc3cn(-c4ccc(C)cc4)nn3)c(OC)c2)cc1OC	> 1.64	≥ 600	366	
COc1ccc(C[C@H]2COC(=O)[C@@H]2Cc2ccc(OCc3cn(Cc4ccccc4F)nn3)c(OC)c2)cc1OC	> 35.1	≥ 600	17.1	Activity [5]: 28.4%; Activity [6]: Active; survival at 100 µM [16]: 68.4%; mortality [7]: 10 days; Activity [8]: Active; inhibition in vivo at 100 mg/kg [9]: 66.9%; Activity [10]: Active; Activity [17]: Active; Activity [18]: Active; Activity [11]: inactive; survival at 100 mg/kg [14]: 16%; Activity [15]: Active
COc1ccc(C[C@H]2COC(=O)[C@@H]2Cc2ccc(OC(=O)CCC(=O)N3CCCC3)c(OC)c2)cc1OC	1.74	201	115	
